From patent US12024503B2, “Benzethers and anilines of pyrazolyl-amino-pyrimidinyl derivatives, and compositions and methods thereof” (LYNK PHARMACEUTICALS CO. LTD., priority 2019, dated 2024) come the findings set out here.

Each structure is given as a SMILES string. Where two headings read alike, the source gives them in different places.

Common to all, as to assay type: biochemical
Assay [1] deals with T1, TYK2 (Homo sapiens, UniProt P29597).
T1 construct: purchased Carna Biosciences
As to the kind of experiment: TYK2 microfluidic kinase assay (Caliper EZ Reader II, FAM labeled peptide substrate). The following applies: (2.5 nM), 1 mM ATP. The procedure: (§1) Compounds were tested against JAK1, JAK2, JAK2V617F and TYK2.
(§2) Assay Formats: JAK activity was determined in the reaction buffer 50 mM HEPES, 0.01% Brij35, 10 mMMgCl2, 2 mMDTT by a microfluidic assay. The phosphorylation of a FAM labeled peptide substrate was monitored in the Caliper EZ Reader II (Perkin Elmer). The assay condition for each batch of enzyme (Carna Biosciences) was optimized to obtain 10% conversion rate of peptide substrate.
(§3) The test compounds were dissolved in DMSO to a stock concentration of 10 mM. 3-fold serially diluted compounds with top concentration of 5 μM were pre-incubated with JAK1, JAK2, JAK2V617F or TYK2 for 10 min at ambient temperature. The final DMSO concentration of assay mixture was 1%. FAM labeled peptide substrate (final concentration […]) and ATP (1 mM concentration) were sequentially added to initiate the kinase reaction at 28° C. The reaction was stopped by adding 50 mMEDTA. The reaction time for JAK1, JAK2, JAK2V617F and TYK2 was 120 min, 20 min, 30 min and 10 min, respectively.
(§4) The well in the test plate without enzyme was defined as 100% inhibition. And the well without compound but with equivalent DMSO was defined as no inhibition. The percent inhibition was calculated by the following formula. % Inhibition=(Conversionmax−Conversionsample)/(Conversionmax−Conversionmin)*100Conversionmax means the conversion rate in the positive well without addition of compound Conversionmin means the conversion rate in the well without addition of enzyme Conversionsample means the conversion rate of test compounds
(§5) The dose-response (percent inhibition) curve was plotted and IC50 values were determined by GraphPad software.

The target of assay [2] is T2, JAK2 (Homo sapiens, UniProt O60674).
T2 construct: purchased Carna Biosciences
T2 sequence (O60674 whole entry): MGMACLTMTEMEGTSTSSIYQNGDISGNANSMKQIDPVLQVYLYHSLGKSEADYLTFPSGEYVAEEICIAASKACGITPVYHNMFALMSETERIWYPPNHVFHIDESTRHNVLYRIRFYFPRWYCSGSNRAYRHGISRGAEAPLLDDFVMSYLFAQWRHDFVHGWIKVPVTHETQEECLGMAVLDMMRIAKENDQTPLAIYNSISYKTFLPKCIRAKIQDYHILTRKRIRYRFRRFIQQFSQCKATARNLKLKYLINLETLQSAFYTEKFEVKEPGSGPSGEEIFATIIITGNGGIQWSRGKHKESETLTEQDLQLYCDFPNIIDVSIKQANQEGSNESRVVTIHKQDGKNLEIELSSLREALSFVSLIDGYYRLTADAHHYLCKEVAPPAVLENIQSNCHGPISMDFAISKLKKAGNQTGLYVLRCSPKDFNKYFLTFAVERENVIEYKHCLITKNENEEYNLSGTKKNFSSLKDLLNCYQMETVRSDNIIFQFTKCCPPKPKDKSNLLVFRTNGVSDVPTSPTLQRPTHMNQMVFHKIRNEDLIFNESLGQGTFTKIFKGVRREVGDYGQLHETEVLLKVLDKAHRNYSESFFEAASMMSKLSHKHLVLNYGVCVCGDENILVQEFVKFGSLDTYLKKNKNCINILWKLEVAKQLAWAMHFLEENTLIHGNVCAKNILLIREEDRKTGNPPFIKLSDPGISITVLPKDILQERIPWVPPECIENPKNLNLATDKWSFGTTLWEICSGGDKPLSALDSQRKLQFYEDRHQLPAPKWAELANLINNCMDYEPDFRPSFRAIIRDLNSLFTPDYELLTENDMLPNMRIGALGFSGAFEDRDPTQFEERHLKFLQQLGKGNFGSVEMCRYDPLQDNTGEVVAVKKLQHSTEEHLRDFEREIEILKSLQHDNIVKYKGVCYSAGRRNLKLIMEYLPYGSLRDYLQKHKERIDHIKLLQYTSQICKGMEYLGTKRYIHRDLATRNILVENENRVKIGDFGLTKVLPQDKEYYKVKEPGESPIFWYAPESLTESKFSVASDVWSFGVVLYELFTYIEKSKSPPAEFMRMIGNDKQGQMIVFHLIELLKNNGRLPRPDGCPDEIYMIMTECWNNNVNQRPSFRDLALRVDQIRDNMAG
As to the kind of experiment: JAK2 microfluidic kinase assay (Caliper EZ Reader II, FAM labeled peptide substrate). The conditions noted are these: (0.25 nM), 1 mM ATP. The method, then: as §1, §2, §3, §4, §5

Assay [3] has as its target T3, JAK1 (Homo sapiens, UniProt P23458).
T3 construct: purchased Carna Biosciences
As to the kind of experiment: JAK1 microfluidic kinase assay (Caliper EZ Reader II, FAM labeled peptide substrate). The following applies: (5 nM), 1 mM ATP. The procedure: as §1, §2, §3, §4, §5

Assay [4] concerns the target T4, JAK2V617F (Homo sapiens, UniProt O60674, V617F).
T4 construct: purchased Carna Biosciences
As to the kind of experiment: JAK2V617F microfluidic kinase assay (Caliper EZ Reader II, FAM labeled peptide substrate). The conditions noted are these: (2.5 nM), 1 mM ATP. The method, then: as §1, §2, §3, §4, §5

[5] abbreviates: Table 3B, literature compounds, read-out: TYK2 (2.5 nM) (1 mM ATP).
[6] abbreviates: Table 3B, literature compounds, read-out: JAK2 (0.25 nM) (1 mM ATP).
The mark [7] stands for this setting: Table 3B, literature compounds, read-out: JAK1 (5 nM) (1 mM ATP).
Setting [8] is: Table 3B, literature compounds, read-out: J2V617F (2.5 nM) (1 mM ATP).
The mark [9] stands for this setting: Table 2, read-out: IC50 TYK2 (2.5 nM) (1 mM ATP).
The mark [10] stands for this setting: Table 2, read-out: IC50 JAK2 (0.25 nM) (1 mM ATP).
Where [11] appears, read: Table 2, read-out: IC50 JAK1 (5 nM) (1 mM ATP).
Setting [12] is: Table 2, read-out: IC50 J2V617F (2.5 nM) (1 mM ATP).

T3 sequence (P23458 whole entry): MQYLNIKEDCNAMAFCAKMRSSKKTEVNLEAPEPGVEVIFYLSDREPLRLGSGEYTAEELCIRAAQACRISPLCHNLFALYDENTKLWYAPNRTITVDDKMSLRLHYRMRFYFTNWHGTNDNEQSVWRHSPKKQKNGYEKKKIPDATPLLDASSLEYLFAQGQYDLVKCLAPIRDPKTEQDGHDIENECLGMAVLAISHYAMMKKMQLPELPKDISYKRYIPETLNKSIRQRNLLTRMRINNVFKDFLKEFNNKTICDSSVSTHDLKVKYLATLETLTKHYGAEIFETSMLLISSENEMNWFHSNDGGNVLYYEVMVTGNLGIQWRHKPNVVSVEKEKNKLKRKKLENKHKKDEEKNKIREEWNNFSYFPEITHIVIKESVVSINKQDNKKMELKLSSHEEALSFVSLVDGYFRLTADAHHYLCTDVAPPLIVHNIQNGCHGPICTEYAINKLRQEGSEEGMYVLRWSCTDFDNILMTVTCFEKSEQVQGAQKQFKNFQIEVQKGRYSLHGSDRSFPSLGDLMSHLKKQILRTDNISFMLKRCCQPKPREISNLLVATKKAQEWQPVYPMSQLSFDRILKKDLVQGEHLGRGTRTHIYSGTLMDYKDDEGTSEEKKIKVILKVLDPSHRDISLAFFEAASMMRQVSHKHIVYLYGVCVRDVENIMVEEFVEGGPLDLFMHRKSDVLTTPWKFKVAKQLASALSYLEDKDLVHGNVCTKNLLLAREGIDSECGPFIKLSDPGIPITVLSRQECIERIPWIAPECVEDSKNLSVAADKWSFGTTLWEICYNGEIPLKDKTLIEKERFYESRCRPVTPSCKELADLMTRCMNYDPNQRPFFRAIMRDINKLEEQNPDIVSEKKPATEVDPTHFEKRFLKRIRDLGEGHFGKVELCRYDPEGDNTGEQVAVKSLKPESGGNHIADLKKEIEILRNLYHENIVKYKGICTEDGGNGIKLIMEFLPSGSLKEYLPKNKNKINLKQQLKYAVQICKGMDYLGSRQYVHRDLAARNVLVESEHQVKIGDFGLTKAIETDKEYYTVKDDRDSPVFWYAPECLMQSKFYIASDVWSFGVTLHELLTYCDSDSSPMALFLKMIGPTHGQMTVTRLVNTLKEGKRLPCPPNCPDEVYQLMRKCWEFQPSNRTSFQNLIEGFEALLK
T4 sequence (O60674 whole entry V617F): as the sequence (O60674 whole entry) above, with V617F counted along it
T1 sequence (P29597 whole entry): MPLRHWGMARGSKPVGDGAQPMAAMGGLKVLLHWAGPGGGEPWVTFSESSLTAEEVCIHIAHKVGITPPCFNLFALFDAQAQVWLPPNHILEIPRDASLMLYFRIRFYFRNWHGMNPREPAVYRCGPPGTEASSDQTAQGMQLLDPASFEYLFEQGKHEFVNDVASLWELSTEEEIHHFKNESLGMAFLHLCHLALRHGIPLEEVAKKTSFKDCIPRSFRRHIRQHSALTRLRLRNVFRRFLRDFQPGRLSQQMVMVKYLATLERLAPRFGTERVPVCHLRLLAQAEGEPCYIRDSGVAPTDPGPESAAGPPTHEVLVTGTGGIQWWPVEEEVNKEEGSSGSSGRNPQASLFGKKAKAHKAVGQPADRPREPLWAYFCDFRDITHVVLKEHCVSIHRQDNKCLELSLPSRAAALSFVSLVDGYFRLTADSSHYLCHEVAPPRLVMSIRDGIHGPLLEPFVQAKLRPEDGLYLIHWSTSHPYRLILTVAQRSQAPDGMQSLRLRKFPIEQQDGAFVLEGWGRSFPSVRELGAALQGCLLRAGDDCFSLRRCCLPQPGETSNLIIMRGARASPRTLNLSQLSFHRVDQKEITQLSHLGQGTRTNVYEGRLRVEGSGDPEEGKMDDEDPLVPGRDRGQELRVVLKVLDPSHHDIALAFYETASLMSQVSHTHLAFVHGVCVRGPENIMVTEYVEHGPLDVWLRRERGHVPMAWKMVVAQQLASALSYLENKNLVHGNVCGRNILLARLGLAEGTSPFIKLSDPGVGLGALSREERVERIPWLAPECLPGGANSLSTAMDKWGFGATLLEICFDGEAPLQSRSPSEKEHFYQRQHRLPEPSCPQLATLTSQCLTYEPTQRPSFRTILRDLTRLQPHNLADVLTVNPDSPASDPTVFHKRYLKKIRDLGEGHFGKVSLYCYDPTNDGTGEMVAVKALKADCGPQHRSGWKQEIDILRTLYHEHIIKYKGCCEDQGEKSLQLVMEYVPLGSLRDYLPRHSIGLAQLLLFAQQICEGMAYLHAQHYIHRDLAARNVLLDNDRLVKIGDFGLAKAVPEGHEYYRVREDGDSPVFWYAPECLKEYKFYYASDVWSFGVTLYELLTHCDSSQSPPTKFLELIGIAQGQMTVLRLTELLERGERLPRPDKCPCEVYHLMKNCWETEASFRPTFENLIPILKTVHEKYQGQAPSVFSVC

As to `CCOc1ccc(-c2nc(Nc3cnn(C(C)C)c3)ncc2C)cc1F` [Example 49, 4-(4-ethoxy-3-fluorophenyl)-N-(1-isopropyl-1H-pyrazol-4-yl)-5-methylpyrimidin-2-amine, reference compound], the IC50 turned out to be 0.0413 µM in assay [1] (setting [5]), 0.0807 µM in assay [2] (setting [6]), 0.0526 µM in assay [3] (setting [7]) and 0.103 µM in assay [4] (setting [8]).
On to `Cc1cnc(Nc2cnn(C3CC3)c2)nc1-c1ccc(N(C)CC2(C#N)CC2)c(F)c1` [Example 33, 1-(((4-(2-((1-cyclopropyl-1H-pyrazol-4-yl)amino)-5-methylpyrimidin-4-yl)-2-fluorophenyl)(methyl)amino)methyl) cyclopropanecarbonitrile], for which the IC50 in assay [1] (setting [9]) was 0.03 µM; in assay [2] (setting [10]), under 0.00025 µM; in assay [3] (setting [11]) it was 0.0108 µM; in assay [4] (setting [12]) it was 0.00616 µM.
With `COCCn1cc(Nc2ncc(C)c(-c3ccc(OCC(C)(C)C#N)c(F)c3)n2)cn1` [Example 19, 3-(2-fluoro-4-(2-((1-(2-methoxyethyl)-1H-pyrazol-4-yl)amino)-5-methylpyrimidin-4-yl)phenoxy)-2,2-dimethylpropanenitrile], the IC50 in assay [1] (setting [9]) is under 0.00125 µM; in assay [2] (setting [10]) it was under 0.00025 µM; in assay [3] (setting [11]), under 0.0025 µM; in assay [4] (setting [12]) it was under 0.00125 µM.
For the compound `CCOc1ccc(-c2nc(Nc3cnn(C)c3)ncc2C)cc1F` [Example 46, 4-(4-ethoxy-3-fluorophenyl)-5-methyl-N-(1-methyl-1H-pyrazol-4-yl)pyrimidin-2-amine, reference compound], the IC50 in assay [1] (setting [5]) is 0.0749 µM; in assay [2] (setting [6]) it was 0.0606 µM; in assay [3] (setting [7]), 0.0406 µM; in assay [4] (setting [8]) it was 0.0863 µM.
Turning to `Cc1cnc(Nc2cnn(C3CC3)c2)nc1-c1ccc(OCC(C)(C)C#N)cc1` [Example 1, 3-(4-(2-((1-cyclopropyl-1H-pyrazol-4-yl)amino)-5-methylpyrimidin-4-yl)phenoxy)-2,2-dimethylpropanenitrile], the IC50 worked out at 0.012 µM in assay [1] (setting [9]), 0.00027 µM in assay [2] (setting [10]), 0.0048 µM in assay [3] (setting [11]) and 0.00318 µM in assay [4] (setting [12]).
For `CCOc1ccc(-c2nc(Nc3cnn(C)c3)ncc2C)cc1` [Example 50, 4-(4-ethoxyphenyl)-5-methyl-N-(1-methyl-1H-pyrazol-4-yl)pyrimidin-2-amine, reference compound], the IC50 turned out to be 0.157 µM in assay [1] (setting [5]), 0.201 µM in assay [2] (setting [6]), 0.151 µM in assay [3] (setting [7]) and 0.343 µM in assay [4] (setting [8]).
As for `Cc1cnc(Nc2cnn(C3CCN(C)CC3)c2)nc1-c1ccc(OCC(C)(C)C#N)cc1` [Example 17, 2,2-dimethyl-3-(4-(5-methyl-2-((1-(1-methylpiperidin-4-yl)-1H-pyrazol-4-yl)amino)pyrimidin-4-yl)phenoxy)propanenitrile], the IC50 in assay [1] (setting [9]) was under 0.00125 µM; in assay [2] (setting [10]) it was under 0.00025 µM; in assay [3] (setting [11]) it was under 0.0025 µM; in assay [4] (setting [12]), under 0.00125 µM.
